Tested on: RSV strain A2
Assay: RSV antiviral cytoprotection assay in Hep2 cells (RSV-induced cytopathic effect, Cell TiterGlo)
Format: cell-based, Respiratory Syncytial Virus (RSV)
Conditions: human respiratory syncytial virus, HEp-2, 0.5 μM compound; RSV A2-infected Hep2 cells; % inhibition calculated from 4-parameter dose response curve, normalized to 0% and 100%; read-out: Percent inhibition at 0.5 μM
Description: Antiviral activity against RSV was determined using an in vitro cytoprotection assay in Hep2 cells. […] The method used was similar to methods previously described in published literature (Chapman et al., Antimicrob Agents Chemother. 2007, 51(9):3346-53.)
Hep2 cells were obtained from ATCC (Manassas, VI) and maintained in MEM media supplemented with 10% fetal bovine serum and penicillin/streptomycin. Cells were passaged twice a week and kept at subconfluent stage. Commercial stock of RSV strain A2 (Advanced Biotechnologies, Columbia, Md.) was titered before compound testing to determine the appropriate dilution of the virus stock that generated desirable cytopathic effect in Hep2 cells.
For antiviral tests, Hep2 cells were seeded into 96-well plates 24 hours before the assay at a density of 3,000 cells/well. On a separate 96 well plate, compounds to be tested were serially diluted in cell culture media. Eight concentrations in 3-fold serial dilution increments were prepared for each tested compound and 100 uL/well of each dilution was transferred in duplicate onto plates with seeded Hep2 cells. Subsequently, appropriate dilution of virus stock previously determined by titration was prepared in cell culture media and 100 uL/well was added to test plates containing cells and serially diluted compounds. Each plate included three wells of infected untreated cells and three wells of uninfected cells that served as 0% and 100% virus inhibition control, respectively. Following the infection with RSV, testing plates were incubated for 4 days in a tissue culture incubator. After the incubation, RSV-induced cytopathic effect was determined using a Cell TiterGlo reagent (Promega, Madison, Wis.) followed by a luminescence read-out. The percentage inhibition was calculated for each tested concentration relative to the 0% and 100% inhibition controls and the EC50 value for each compound was determined by non-linear regression as a concentration inhibiting the RSV-induced cytopathic effect by 50%. Ribavirin (purchased from Sigma, St. Louis, Mo.) was used as a positive control for antiviral activity.
Compounds were also tested for antiviral activity against RSV in Hep2 cells using a 384 well format. Compounds were diluted in DMSO using a 10-step serial dilution in 3-fold increments via automation in 4 adjacent replicates each. Eight compounds were tested per dilution plate. 0.4 uL of diluted compounds were then stamped via Biomek into 384-well plates (Nunc 142761 or 164730 w/lid 264616) containing 20 μL of media (Mediatech Inc. MEM supplemented with Glutamine, 10% FBS and Pen/Strep). DMSO and a suitable positive control compound, such as 80 μM GS-329467 or 10 μM 427346 was used for the 100% and 0% cell killing controls, respectively.
Hep2 cells (1.0×10^5 cells/ml) were prepared as above in batch to at least 40 mls excess of the number of sample plates (8 mls cell mix per plate) and infected with vendor supplied (ABI) RSV strain A2 to arrive at an MOI of 1:1000 (virus:cell #) or 1:3000 (vol virus: cell vol). Immediately after addition of virus, the RSV infected Hep2 cell suspension was added to each stamped 384-well plate at 20 μl per well using a uFlow dispenser, giving a final volume of 40 μL/well, each with 2000 infected cells. The plates were then incubated for 5 days at 37° C. and 5% CO2. Following incubation, the plates were equilibrated to room temperature in a biosafety cabinet hood for 1.5 hrs and 40 μL of Cell-Titer Glo viability reagent (Promega) was added to each well via uFlow. Following a10-20 minute incubation, the plates were read using an EnVision or Victor Luminescence plate reader (Perkin-Elmer). The data was then uploaded and analyzed on the Bioinformatics portal under the RSV Cell Infectivity and 8-plate EC50-Hep2-384 or 8-plate EC50-Hep2-Envision protocols. […]

Compared with `Cc1noc(-c2ccccc2C(=O)N2CCCC[C@H]2c2cc3nc(N4C[C@@H](C#N)[C@@H](O)C4)c(C)cn3n2)n1` [Compound 129], `Cc1ccc(Cl)cc1C(=O)N1CCCC[C@H]1c1cc2nc(N3C[C@@H](C#N)[C@@H](O)C3)c(C)cn2n1` [Compound 202] is higher in inhibition at 0.5 µM: 87% for the first, 100% for the second.

Compared with `Cc1cn2nc([C@@H]3CCCCN3C(=O)c3ccc4cccc(F)c4n3)cc2nc1N1CC[C@H](N)C1` [Compound 52], `Cc1cn2nc([C@@H]3CCCCN3C(=O)c3ccc4cccnc4n3)cc2nc1N1CC[C@H](N)C1` [Compound 50] is lower in inhibition at 0.5 µM: 71% for the first, 15% for the second.

Going from `Cc1cn2nc([C@@H]3CCCCN3C(=O)c3cccc(C(F)(F)F)n3)cc2nc1N1C[C@@H](C#N)[C@@H](O)C1` [Compound 148] to `Cc1cn2nc([C@@H]3CCCCN3C(=O)c3ccccc3C(F)(F)F)cc2nc1N1C[C@@H](C#N)[C@@H](O)C1` [Compound 184], the inhibition at 0.5 µM rises from 77% to 100%.

First: CN[C@@H]1CCN(c2nc3cc([C@@H]4CCCCN4C(=O)c4cc(Cl)ccc4NS(C)(=O)=O)nn3cc2C)C1 [Compound 10]
Second: Cc1cn2nc([C@@H]3CCCCN3C(=O)c3cc(Cl)ccc3NS(C)(=O)=O)cc2nc1N1CC(C)NC(C)C1 (some centres unmarked) [Compound 20]
The inhibition at 0.5 µM of the first is higher: 95% for the first, 63% for the second.

Compared with `Cc1cn2nc([C@@H]3CCCCN3C(=O)c3c(Cl)cnn3C(C)C)cc2nc1N1C[C@@H](C#N)[C@@H](O)C1` [Compound 190], `Cc1ccnc(C(=O)N2CCCC[C@H]2c2cc3nc(N4CC(C#N)[C@@H](O)C4)c(C)cn3n2)c1` (some centres unmarked) [Compound 196] is lower in inhibition at 0.5 µM: 100% for the first, 96% for the second.

Going from `Cc1cn2nc([C@@H]3CCCCN3C(=O)c3ccc(F)cc3F)cc2nc1N1C[C@@H](C#N)[C@@H](O)C1` [Compound 150] to `Cc1ccc(S(C)(=O)=O)cc1C(=O)N1CCCC[C@H]1c1cc2nc(N3C[C@@H](C#N)[C@@H](O)C3)c(C)cn2n1` [Compound 138], the inhibition at 0.5 µM falls from 99% to 65%.

Compared with `Cc1cn2nc([C@@H]3CCCCN3C(=O)c3ncccc3Br)cc2nc1N1C[C@@H](C#N)[C@@H](O)C1` [Compound 154], `Cc1cn2nc([C@@H]3CCCCN3C(=O)c3nccc4ccccc34)cc2nc1N1C[C@@H](C#N)[C@@H](O)C1` [Compound 163] is higher in inhibition at 0.5 µM: 90% for the first, 100% for the second.

`Cc1cn2nc([C@@H]3CCCCN3C(=O)c3cccc4c3ccn4C)cc2nc1N1C[C@@H](C#N)[C@@H](O)C1` [Compound 185] and `Cc1cn2nc([C@@H]3CCCCN3C(=O)c3nn(C)c4ccccc34)cc2nc1N1C[C@@H](C#N)[C@@H](O)C1` [Compound 187] are the same in inhibition at 0.5 µM: 100% for the first, 100% for the second.

`CC(=O)Nc1ccc(C)cc1C(=O)N1CCCC[C@H]1c1cc2nc(N3CC(O)C(C#N)C3)c(C)cn2n1` (some centres unmarked) [Compound 203] and `Cc1cn2nc([C@@H]3CCCCN3C(=O)c3cccc4c3OCO4)cc2nc1N1C[C@@H](C#N)[C@@H](O)C1` [Compound 140] are the same in inhibition at 0.5 µM: 100% for the first, 100% for the second.

First: COc1ccc(S(N)(=O)=O)cc1C(=O)N1CCCC[C@H]1c1cc2nc(N3CC[C@H](N)C3)c(C)cn2n1 [Compound 29]
Second: COc1ccccc1C(=O)N1CCCC[C@H]1c1cc2nc(N3CC[C@H](N)C3)c(C)cn2n1 [Compound 27]
The inhibition at 0.5 µM of the first is lower: 71% for the first, 100% for the second.

Compared with `Cc1cn2nc([C@@H]3CCCCN3C(=O)c3cc4c(OC(F)F)cccc4[nH]3)cc2nc1N1CC[C@H](N)C1` [Compound 57], `Cc1cn2nc([C@@H]3CCCCN3C(=O)c3ccccc3Cl)cc2nc1N1CC[C@H](N)C1` [Compound 69] is higher in inhibition at 0.5 µM: 13% for the first, 100% for the second.

`Cc1cn2nc([C@@H]3CCCCN3C(=O)c3cccc4c3CCCN4)cc2nc1N1CC[C@H](N)C1` [Compound 60] and `Cc1cn2nc([C@@H]3CCCCN3C(=O)c3ccccc3[S+](C)[O-])cc2nc1N1CC[C@H](N)C1` (some centres unmarked) [Compound 103] are the same in inhibition at 0.5 µM: 100% for the first, 100% for the second.

Compared with `Cc1cc(F)c(F)cc1C(=O)N1CCCC[C@H]1c1cc2nc(N3CC[C@H](N)C3)c(C)cn2n1` [Compound 75], `Cc1cn2nc([C@@H]3CCCCN3C(=O)c3ncc(C(F)(F)F)cc3Cl)cc2nc1N1CC[C@H](N)C1` [Compound 105] is lower in inhibition at 0.5 µM: 100% for the first, 31% for the second.
